Experiment: Storage stability of the product at 40° ± 2° C. for 90 days (drop in assay)
Format: physicochemical
Conditions: for Storage Stability: assay after storage: after 90 days at 40° ± 2° C.; for Storage Stability: assay at start: before storage at 40° ± 2° C.; for storage stability (statement in words): product obtained by the process of the invention

SMILES: CO/N=C(\C(=O)N[C@@H]1C(=O)N2C(C(=O)O)=C(CSC(=O)c3ccco3)CS[C@H]12)c1csc(N)n1 [ceftiofur (Ia)]
- Storage Stability (90 days at 40° ± 2° C.): Stable for 90 days at 40° ± 2 °C with a
- Storage Stability: assay after storage: 92%
- Storage Stability: assay at start: 97%
- storage stability (statement in words): high storage stability

SMILES: CO/N=C(\C(=O)N[C@@H]1C(=O)N2C(C(=O)[O-])=C(CSC(=O)c3ccco3)CS[C@H]12)c1csc(N)n1.[Na+] [ceftiofur sodium (Ib)]
- Storage Stability: assay after storage: 87%
- Storage Stability: assay at start: 94%
- storage stability (statement in words): high storage stability
